Measurements: US20190032014A1, “USING MICROBIOTA METABOLITES TO DIFFERENTIATE NAÏVE T-CELLS AND RELATED METHODS TO INDUCE OR PREVENT INFLAMMATORY CONDITIONS” (THE TEXAS A&M UNIVERSITY SYSTEM, priority 2016, published 2019)
Entries after “also recorded” stand apart in the source; their conditions may differ.

Legend:
CD4+ CD25− naïve T cells = experiment: In vitro naïve T cell differentiation, Th1-skew (IFN-γ+); format: cell-based, C57BL/6 mice; conditions: Th1 skewing conditions
Procedure: When naïve CD4+ CD25− cells were cultured 72 hours in αCD3/28 coated wells with Th0-, Th1- or Th2-skew cytokines and indole or solvent control, followed by stimulation with PMA, Ionomycin and Golgi Plug for the last 5 hours of culture, no effect on the % of Th1 and Th2 cells was observed (in contrast to the significant effect that indole has on Treg and Th17 cells; see FIGS. 2A and 2B).
CD4+ CD25− T cells were isolated to high purity (>98%) from the pooled spleen and mesenteric lymph nodes of C57BL/6 mice (Jackson Labs) with a BD FACS Aria II flow cytometer. Fc Block (BD), αCD4-efluor450 (eBioscience clone GK1.5) and αCD25-PECy7 (eBioscience clone PC61.5) antibodies were used for staining before sorting.
For Th1-skew: 5 ng/mL IL-12 (Peprotech cat. #210-12) and 10 µg/mL αIL-4 (BioXCell clone 11B11) were added to culture. For Th2-skew: 10 ng/mL IL-4 (Peprotech) and 10 μg/mL αIFN-γ (BioXCell clone R4-6A2) were added to culture. For Th17-skew: 10 ng/mL IL-6 (Peprotech), 5 ng/mL IL-23 (R&D), 0.5 ng/mL TGF-β (Peprotech), 10 μg/mL al-4 (BioXCell clone 11B11), and 10 μg/mL αIFN-γ (BioXCell clone R4-6A2) were added to culture. For Treg-skew: 2 ng/mL TGF-β (Peprotech) and 100 U/mL IL-2 (Roche) were added to culture. Sodium Propionate, sodium acetate, sodium butyrate and sodium chloride (all from Sigma-Aldrich) were solubilized in media and added to culture. Indole was solubilized in DMF (both from Sigma-Aldrich) at 2M and brought to final concentration in media. MGCD0103 (Selleck Chemicals) was solubilized in DMF at 2 mM and brought to final concentration in media. A 0.05% DMF solvent control was used for all experiments.

[1] = test system: effector T cell proliferation; experiment: Suppression assay of effector T cell proliferation by iTregs; format: cell-based, mice
Procedure: FOXP3-EGFP naïve CD4+ CD25− cells cultured in αCD3/28 coated wells with Treg-skew cytokines and indole or solvent control were cultured for 72 hours, and assessed for FoxP3 expression and proliferation by CFSE dilution.
Specifically, FIG. 13 graphically illustrates the results of the suppression assay, showing the suppression of T-cell proliferation as determined by IL-2 production (an essential marker of T-cell proliferation) with increased proportions of Tregs added to co-cultures with effector T-cells..
After 72 h, cells are stimulated with PMA/ionomycin (10 ng/mL PMA, […] ionomycin). For flow cytometry, cells are treated with Golgi plug (Brefeldin A) for four hours and then stained with fluorophore-conjugated mAbs against both inflammatory (e.g., IL-6, IL-12, IL-17, TNF-α) and anti-inflammatory (e.g., IL-10, IL-35, TGF-β) cytokines. Samples are stained with the maximum number of antibodies. Furthermore, expression of established Treg markers (FOXP3, CD25hi, CD103, CD62L, GITR, PD-1, CD152, CD127, ICOS, Granzyme-B) [Vignali, D. A., L. W. Collison, and C. J. Workman, Nat Rev Immunol 8(7):523-32. (2008); Chen, J., et al., Int Immunopharmacol 11(5):610-7 (2011)] and markers of an inflammatory phenotype (RORγT) can be analyzed. […] The effect of the TDMMs on suppression of effector T cell proliferation is determined as described for FIG. 4. […]

mTOR = mTOR activation (% P-S6) in conditioned T cells; format: cell-based; conditions: matured conditioned T cells
Excerpt: The mechanistic target of rapamycin (mTOR) is a core component in multiple protein complexes that have significant influence on various cellular processes including cell growth, differentiation, and even enteropathies in the intestine. Accordingly, the interaction of indole and 5-HI on mTor activation was investigated.

[2] = target: T1, aryl hydrocarbon receptor (AhR) (Homo sapiens, UniProt P35869); conditions: intestinal epithelial cells; Jin et al. 2014; cited from earlier work
T1 sequence (P35869 11-848): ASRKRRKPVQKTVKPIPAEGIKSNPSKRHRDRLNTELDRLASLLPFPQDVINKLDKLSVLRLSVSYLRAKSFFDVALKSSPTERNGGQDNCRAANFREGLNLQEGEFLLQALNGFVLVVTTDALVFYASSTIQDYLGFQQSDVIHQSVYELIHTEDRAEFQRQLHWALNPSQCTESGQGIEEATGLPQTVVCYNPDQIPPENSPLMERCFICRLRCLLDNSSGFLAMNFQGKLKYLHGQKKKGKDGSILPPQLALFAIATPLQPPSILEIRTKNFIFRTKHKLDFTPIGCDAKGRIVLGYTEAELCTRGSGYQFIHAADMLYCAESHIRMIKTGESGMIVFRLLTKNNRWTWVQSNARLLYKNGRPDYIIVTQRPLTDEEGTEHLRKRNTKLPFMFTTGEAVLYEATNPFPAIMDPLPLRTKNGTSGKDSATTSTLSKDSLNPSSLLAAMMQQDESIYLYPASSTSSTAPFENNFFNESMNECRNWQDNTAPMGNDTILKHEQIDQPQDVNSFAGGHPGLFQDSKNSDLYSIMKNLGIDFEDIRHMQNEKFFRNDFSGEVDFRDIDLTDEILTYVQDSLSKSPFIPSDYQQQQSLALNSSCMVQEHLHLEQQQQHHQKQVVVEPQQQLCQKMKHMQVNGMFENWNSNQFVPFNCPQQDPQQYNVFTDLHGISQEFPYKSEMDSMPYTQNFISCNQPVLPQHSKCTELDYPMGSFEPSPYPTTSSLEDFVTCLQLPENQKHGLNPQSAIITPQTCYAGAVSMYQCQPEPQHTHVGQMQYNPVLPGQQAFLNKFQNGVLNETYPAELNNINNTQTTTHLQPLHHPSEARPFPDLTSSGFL

c1ccc2[nH]ccc2c1 [Indole, indole]
% IFN-γ+ cells, indole combined with butyrate (CD4+ CD25− naïve T cells; regardless of 5-HI presence): the % IFN-γ+ cells decreases | % IFN-γ+ cells, indole combined with 5-HI (CD4+ CD25− naïve T cells; vs 5-HI alone): negated when 5-HI is combined with indole | effect on % Th1 cells (IFN-γ+) (CD4+ CD25− naïve T cells; vs solvent control): no effect; also recorded: did not influence the development of Th1 and Th2 cells; also recorded: did not affect the Th1 skewing of Th1 cells | suppression of effector T cell proliferation ([1]; indole-conditioned Tregs, 72-hour suppression assay, vs control iTregs (DMF)): suppress effector T cell proliferation function | suppression of T-cell proliferation (IL-2 production) ([1]; indole-induced iTregs vs nTregs or butyrate-induced iTregs): stronger suppressive characteristics, than nTregs or iTregs induced by butyrate | % P-S6 (mTOR activation) (mTOR): significantly reduced | AhR agonist/antagonist activity [2]: acts as both an agonist and antagonist
